What was measured:
[1] = system: hypercholesterolemic swine; experiment: Serum cholesterol, apolipoproteins, triglycerides, glucose, insulin and glucagon in hypercholesterolemic swine; assay type: in vivo
Description: All assays conducted on chicken or swine serum were done following the protocols described in A. A. Qureshi et al., "Lowering Of Serum Cholesterol In Hypercholesterolemic Humans By Tocotrienols" (Palmvitee), Am. […] Plasma insulin, glucagon and TNF levels were measured using radioinnumoassay kits from Ventrex Laboratories, Inc. (Portland, Me.), ICN Biomedicals, Inc. (Costa Mesa, Calif.) and Genzyme Corp. (Cambridge, Mass.), respectively.
We next measured the effects of various tocotrienols from rice bran on HMG-CoA reductase and cholesterol 7α-hydroxylase in hypercholesterolemic swine. Since pigs are very similar to humans in their cholesterol metabolism, they provide a useful model from which to study hypercholesterolemia and related diseases. […] As a result, the pigs develop complicated atherosclerotic plaques that closely resemble advanced atherosclerotic lesions found in humans.
(§1) Each group of three 5-month old swine was administered either a control diet or a control diet supplemented with 50 ppm of TRF or 50 ppm of an individual tocotrienol. […] After a 12 hour fast, serum and plasma samples were taken a 0 hrs, 21 days and 42 days from the start of the feeding period. After taking serum and plasma samples from the pigs at the end of the 42 day period, all of the swine were fasted for a total of 40 hours, followed by a 48 hour refeeding period. One swine from each group was sacrificed at that time and the liver, intestine, lung, heart, loin muscle, adipose tissue and ham muscle were removed.
The experimental conditions were the same, except that the two remaining swine in each group were transferred to the unsupplemented control diet following the 42 day feeding period. After an additional 70 days, serum and plasma samples were collected from these swine after a 12 hour fast for testing.

[2] = system: hypercholesterolemic swine; experiment: Total cholesterol, triglyceride and glucose concentrations in tissues of hypercholesterolemic swine; assay type: in vivo; conditions: control diet + 50 ppm, 42 days
Description: as §1
We next determined the effect of tocotrienols on the total cholesterol, triglyceride and glucose concentrations in various tissues of hypercholesterolemic swine.

[3] = 70 days on control diet after 42 days at 50 ppm

`CC(C)=CCC/C(C)=C/CC/C(C)=C/CCC1(C)CCc2cc(O)ccc2O1` (stereo not shown) [P21, 3,4-dihydro-2-methyl-2-(4,8,12-trimethyltrideca-3' (E),7'(E),11'-trienyl)-2H-1-benzopyran-6-ol] was tested, and the “HDL-CHOLESTEROL CONCENTRATION IN SERUM” value [1, 3] was 31.15 mg/100 ml, the “HDL-CHOLESTEROL, Percentage of Control Activity” value [1, 3] was 103.50% and the “HDL-CHOLESTEROL, percentage of baseline value” [1, 3] was 135.72%. The “HDL:LDL CHOLESTEROL, Percentage of Control Activity” value [1, 3] was 83.83%, the “LDL-CHOLESTEROL CONCENTRATION IN SERUM” value [1, 3] was 227.82 mg/100 ml and the “LDL-CHOLESTEROL, Percentage of Control Activity” value [1, 3] was 88.02%. For the same compound, the “LDL-CHOLESTEROL, percentage of baseline value” [1, 3] was 125.11%, the “TOTAL CHOLESTEROL CONCENTRATION IN SERUM” value [1, 3] was 276.23 mg/100 ml and the “TOTAL CHOLESTEROL, Percentage of Control Activity” value [1, 3] was 76.20%. For the same compound, the “TOTAL CHOLESTEROL, percentage of baseline value” [1, 3] was 125.39%, the “Apo A1, percentage of control” value ([1]; control diet + 50 ppm, 6 weeks) was 104.01% and the “Apo A1 concentration in serum” value ([1]; control diet + 50 ppm, 6 weeks) was 26.72 ± 1.14 mg/100 ml. The “Apo B concentration in serum” value ([1]; control diet + 50 ppm, 6 weeks) was 111.78 ± 1.80 mg/100 ml, the “Apo B, percentage of control” value ([1]; control diet + 50 ppm, 6 weeks) was 75.64% and the “Triglycerides concentration in serum” value ([1]; control diet + 50 ppm, 6 weeks) was 64.44 mg/100 ml. For the same compound, the “Triglycerides, percentage of control” value ([1]; control diet + 50 ppm, 6 weeks) was 84.17%, the “HDL-CHOLESTEROL CONCENTRATION IN SERUM” value ([1]; control diet + 50 ppm, 21 days) was 26.23 mg/100 ml and the “HDL-CHOLESTEROL, percentage of baseline value” ([1]; control diet + 50 ppm, 21 days) was 114.29%. The “HDL:LDL CHOLESTEROL, percentage of baseline value” ([1]; control diet + 50 ppm, 21 days) was 93.32%, the “LDL-CHOLESTEROL CONCENTRATION IN SERUM” value ([1]; control diet + 50 ppm, 21 days) was 194.17 mg/100 ml and the “LDL-CHOLESTEROL, percentage of baseline value” ([1]; control diet + 50 ppm, 21 days) was 106.63%. The “TOTAL CHOLESTEROL CONCENTRATION IN SERUM” value ([1]; control diet + 50 ppm, 21 days) was 236.40 mg/100 ml, the “TOTAL CHOLESTEROL, percentage of baseline value” ([1]; control diet + 50 ppm, 21 days) was 107.20% and the Glucagon ([1]; control diet + 50 ppm, 42 days) was 278.36 pg/mL. The “Glucagon, percentage of control” value ([1]; control diet + 50 ppm, 42 days) was 84.25%, the Glucose ([1]; control diet + 50 ppm, 42 days) was 72.63 mg/100 ml and the “Glucose, percentage of control” value ([1]; control diet + 50 ppm, 42 days) was 75.66%. For the same compound, the “HDL-CHOLESTEROL CONCENTRATION IN SERUM” value ([1]; control diet + 50 ppm, 42 days) was 30.74 mg/100 ml, the “HDL-CHOLESTEROL, Percentage of Control Activity” value ([1]; control diet + 50 ppm, 42 days) was 113.90% and the “HDL-CHOLESTEROL, percentage of baseline value” ([1]; control diet + 50 ppm, 42 days) was 133.94%. For the same compound, the “HDL:LDL CHOLESTEROL, Percentage of Control Activity” value ([1]; control diet + 50 ppm, 42 days) was 57.82%, the “HDL:LDL CHOLESTEROL, percentage of baseline value” ([1]; control diet + 50 ppm, 42 days) was 81.59% and the Insulin ([1]; control diet + 50 ppm, 42 days) was 21.4 µU/mL. The “Insulin, percentage of control” value ([1]; control diet + 50 ppm, 42 days) was 104.63%, the “LDL-CHOLESTEROL CONCENTRATION IN SERUM” value ([1]; control diet + 50 ppm, 42 days) was 198.76 mg/100 ml and the “LDL-CHOLESTEROL, Percentage of Control Activity” value ([1]; control diet + 50 ppm, 42 days) was 66.53%. The “LDL-CHOLESTEROL, percentage of baseline value” ([1]; control diet + 50 ppm, 42 days) was 109.15%, the “TOTAL CHOLESTEROL CONCENTRATION IN SERUM” value ([1]; control diet + 50 ppm, 42 days) was 238.17 mg/100 ml and the “TOTAL CHOLESTEROL, Percentage of Control Activity” value ([1]; control diet + 50 ppm, 42 days) was 68.90%. For the same compound, the “TOTAL CHOLESTEROL, percentage of baseline value” ([1]; control diet + 50 ppm, 42 days) was 108.20%, the “TOTAL CHOLESTEROL CONCENTRATION, Adipose Tissue” value [2] was 89.85 mg/100 gm and the “TOTAL CHOLESTEROL CONCENTRATION, Ham Muscle” value [2] was 79.51 mg/100 gm. For the same compound, the “TOTAL CHOLESTEROL CONCENTRATION, Heart” value [2] was 53.63 mg/100 gm, the “TOTAL CHOLESTEROL CONCENTRATION, Intestine” value [2] was 180.59 mg/100 gm and the “TOTAL CHOLESTEROL CONCENTRATION, Liver” value [2] was 136.70 mg/100 gm. The “TOTAL CHOLESTEROL CONCENTRATION, Loin Muscle” value [2] was 100.58 mg/100 gm, the “TOTAL CHOLESTEROL CONCENTRATION, Lung” value [2] was 75.68 mg/100 gm and the “TOTAL CHOLESTEROL, Adipose Tissue, percentage of control” value [2] was 82.13%. The “TOTAL CHOLESTEROL, Ham Muscle, percentage of control” value [2] was 79.51%, the “TOTAL CHOLESTEROL, Heart, percentage of control” value [2] was 83.13% and the “TOTAL CHOLESTEROL, Intestine, percentage of control” value [2] was 83.80%. The “TOTAL CHOLESTEROL, Liver, percentage of control” value [2] was 67.81%, the “TOTAL CHOLESTEROL, Loin Muscle, percentage of control” value [2] was 84.09% and the “TOTAL CHOLESTEROL, Lung, percentage of control” value [2] was 74.39%. The “TOTAL GLUCOSE CONCENTRATION, Adipose Tissue” value [2] was 16.67 mg/100 gm, the “TOTAL GLUCOSE CONCENTRATION, Ham Muscle” value [2] was 54.01 mg/100 gm and the “TOTAL GLUCOSE CONCENTRATION, Heart” value [2] was 44.17 mg/100 gm. The “TOTAL GLUCOSE CONCENTRATION, Intestine” value [2] was 62.50 mg/100 gm, the “TOTAL GLUCOSE CONCENTRATION, Liver” value [2] was 374.22 mg/100 gm and the “TOTAL GLUCOSE CONCENTRATION, Loin Muscle” value [2] was 55.45 mg/100 gm. For the same compound, the “TOTAL GLUCOSE CONCENTRATION, Lung” value [2] was 61.92 mg/100 gm, the “TOTAL GLUCOSE, Adipose Tissue, percentage of control” value [2] was 90.89% and the “TOTAL GLUCOSE, Ham Muscle, percentage of control” value [2] was 100.35%. The “TOTAL GLUCOSE, Heart, percentage of control” value [2] was 89.69%, the “TOTAL GLUCOSE, Intestine, percentage of control” value [2] was 86.84% and the “TOTAL GLUCOSE, Liver, percentage of control” value [2] was 92.35%. The “TOTAL GLUCOSE, Loin Muscle, percentage of control” value [2] was 77.84%, the “TOTAL GLUCOSE, Lung, percentage of control” value [2] was 92.51% and the “TOTAL TRIGLYCERIDES CONCENTRATION, Adipose Tissue” value [2] was 282.82 mg/100 gm. The “TOTAL TRIGLYCERIDES CONCENTRATION, Ham Muscle” value [2] was 182.16 mg/100 gm, the “TOTAL TRIGLYCERIDES CONCENTRATION, Heart” value [2] was 142.38 mg/100 gm and the “TOTAL TRIGLYCERIDES CONCENTRATION, Intestine” value [2] was 347.75 mg/100 gm. The “TOTAL TRIGLYCERIDES CONCENTRATION, Liver” value [2] was 386.25 mg/100 gm, the “TOTAL TRIGLYCERIDES CONCENTRATION, Loin Muscle” value [2] was 194.75 mg/100 gm and the “TOTAL TRIGLYCERIDES CONCENTRATION, Lung” value [2] was 165.47 mg/100 gm. The “TOTAL TRIGLYCERIDES, Adipose Tissue, percentage of control activity” value [2] was 64.91%, the “TOTAL TRIGLYCERIDES, Ham Muscle, percentage of control activity” value [2] was 98.03% and the “TOTAL TRIGLYCERIDES, Heart, percentage of control activity” value [2] was 98.72%. For the same compound, the “TOTAL TRIGLYCERIDES, Intestine, percentage of control activity” value [2] was 97.24%, the “TOTAL TRIGLYCERIDES, Liver, percentage of control activity” value [2] was 89.96% and the “TOTAL TRIGLYCERIDES, Loin Muscle, percentage of control activity” value [2] was 88.65%. The “TOTAL TRIGLYCERIDES, Lung, percentage of control activity” value [2] was 96.22%.

— patent publication US6239171A, “Tocotrienols and tocotrienol-like compounds and methods for their use” (Lipogenics, Inc., priority 1998, dated 2001)
